# Values joined by “and” are separate entries in the source; they are usually repeats but may differ in a detail not shown here. Equal entries are not always repeated. Where two headings read alike, the source gives them in different places.
# Columns and labels:
# [1] = tested on: Human Peripheral Blood Mononuclear Cells (PBMC); test: TLR9 ligand-induced CXCL13 production of human PBMC; format: cell-based; settings: ODN stimulus; for CXCL13 in culture supernatant: individual donors 1-6; for CXCL13 in culture supernatant, mean: mean of 6 donors
# Description: For evaluating the effect of compound A on the production of chemokines relevant for the formation of germinal centers, PBMC were isolated from Buffy Coat (collected through Inter-Regionale Blutspende of the Swiss Red Cross) by standard Ficoll gradient centrifugation using Ficoll-Paque plus (GE healthcare #17-1440-03) in Leucosep tubes (Greiner Bio-one #227289). Cells were washed two times with PBS and then resuspended at 2.2×10^6/mL in RPMI 1640 medium supplemented with 10% FBS, Gentamycine (50 ug/ml), Insulin-Transferrin-Selenium and P-Mercaptoethanol (50 uM).
# PBMC were dispensed to 48-well plates (Costar #3548) and incubated with pre-diluted compound A resulting in a dilution with a final concentration of 0.3, 1 or 3 uM. Control samples were pretreated with DMSO to obtain a final concentration of 0.03% DMSO. Samples were mixed thoroughly and incubated in a humified incubator at 37° C. for 1 h. Cells were thereafter stimulated by the addition of the TLR9 agonist ODN M362 (Invivogen, #tlrl-m362) at a final concentration of 30 ug/ml or anti-IgM-Dextran (Finabiosolution #0004) at a final concentration of 2 ug/ml. Control samples were left unstimulated. Samples were mixed thoroughly and incubated in a humified incubator at 37° C. for 24 h.
# After the stimulation, culture supernatants were harvested and chemokines quantified by Bio-Plex Multiplex immunoassay (CXCL13; Bio Rad #171 BK12MR2) or MSD V-Plex assay (IP-10; Meso Scale Diagnostics) or according to the manufacturer's instructions.
# [2] = tested on: Akt-phosphorylation in IgM+ B cells; test: Time-dependent inhibition of Akt-phosphorylation ex vivo by a single oral dose in rats; set-up: species or system Lewis rats; settings: 10 mg/kg p.o. single dose; for inhibition at 10 mg/kg: Rattus norvegicus, B-cell, po; for % inhibition of pAkt in IgM+ B cells: rat, individual rats 1-4, 10 mg/kg
# Description: All experiments were performed with adult male Lewis rats (LEW/Han/Hsd, Charles River, Germany and LEW/Orl@Rj, Janvier, France), weighing 220-280 g.
# The suspension for administration was freshly prepared and stored in the dark at room temperature. 14.8 mg of compound A was suspended in 5.92 ml CMC 0.5% with 0.5% Tween80. The milky, homogeneous suspensions were then applied to the animal. The test substances were administered p.o. at in a volume of 4 ml/kg body weight resulting in an oral dose of 10 mg/kg.
# Animals were anaesthetized with isoflurane using a Fluvac airflow system. Whole blood was collected sublingually pre-dose and at 1, 2, 4, 6, 8, 10, 12 and 24 hours post-dose. For pharmacodynamic analysis 100 μl rat blood was collected per time point in Eppendorf tubes with 30 IU sodium heparin (B. Braun, Melsungen, Germany; 5000 I.U./ml). For pharmacokinetic analysis 150 μl rat blood was collected per time point in EDTA coated Eppendorf (Milian cat# TOM-14) tubes.
# For ex vivo analysis of blood from drug-treated animals, […] heparinized blood was mixed in 5 ml U-bottom tubes (BD, cat#352063) with […] of RPMI medium (Gibco, cat#31870) immediately after blood collection, and activated with 10 μl of anti-rat IgM/rIL-4 at a final concentration of anti-rat IgM of […] and rIL-4 of 10 ng/ml. Control samples were left unstimulated. Samples were mixed thoroughly and incubated for 10 minutes at 37° C. in the water bath.
# After incubation, 2 ml of pre-warmed (37° C. in water bath) BD Phosflow Lyse/Fix buffer was added per tube. Samples were mixed thoroughly and incubated for 20 minutes at 37° C. in the water bath. Then samples were centrifuged at 400 g for 5 minutes. After centrifugation 2 ml of BD Phosflow Perm/wash buffer was added per tube. Samples were mixed thoroughly and incubated at room temperature (RT) in the dark for 10 minutes. Thereafter, the samples were snap-frozen on dry ice and then stored at −80° C. until FACS staining.
# For thawing, all samples were incubated for 10 minutes in the water bath at 25° C. After centrifugation at 400 g for 5 minutes the pellets were washed with 2 ml of BD Phosflow Perm/wash buffer and again centrifuged at 400 g for 5 minutes. Supernatants were removed. For analysis of pAkt, samples were stained with PE-labeled anti-rat IgM (BD, cat#553888) to allow gating on B cells in FACS analysis. In addition, samples were stained with Alexa647 conjugated anti-phospho-Akt (Ser473; BD, cat#560343). Staining procedures were performed in a total volume of 100 μl BD Phosflow Perm/wash buffer at RT for 30 minutes in the dark. After incubation, samples were washed with 2 ml of BD Phosflow Perm/wash buffer and centrifuged at 400 g for 5 minutes and the pellets were resuspended in 300 μl BD Stain Buffer (BD, cat#554656). Samples were kept on ice until data were acquired on an LSRII flow cytometer (BD Biosciences) using DIVA software (version 6.1.2). Lymphocytes were gated in the FSC/SSC dot blot according to size and granularity and further analyzed for expression of IgM and phosphorylation of Akt. Data were calculated from dot blots or histograms as percentage of cells positively stained for Akt-phosphorylation within the IgM+ population.
# The effects of the drugs ex vivo were expressed as inhibition of Akt-phosphorylation measured by flow cytometry. The percentage inhibition of Akt-phosphorylation was calculated by the following formula: […]
# Group of four Lewis rats were treated with a single oral dose of 10 mg/kg of compound A. At indicated time points, 50% rat whole blood was stimulated with anti-rat IgM/rIL-4 and Akt-phosphorylation was determined as described in the Method section.
compound,measurement,setting,value
"CCC(=O)N1CC[C@H](Nc2ncnc3c2CN(c2cnc(OC)c(C(F)(F)F)c2)CC3)C1 [Compound A, 1-{(S)-3-[6-(6-Methoxy-5-trifluoromethyl-pyridin-3-yl)-5,6,7,8-tetrahydro-pyrido[4,3-d]pyrimidin-4-ylamino]-pyrrolidin-1-yl}-propan-1-one]",inhibition at 0.3 µM,"[1]; Homo sapiens, PBMC, Compound A 300 nM",40%
same,inhibition at 1 µM,"[1]; Homo sapiens, PBMC, Compound A 1000 nM",51%
same,inhibition at 3 µM,"[1]; Homo sapiens, PBMC, Compound A 3000 nM",55%
same,CXCL13 in culture supernatant,[1]; Compound A 300 nM,8 pg/ml (2×) and 3 pg/ml and 39 pg/ml and 113 pg/ml and 51 pg/ml
same,"CXCL13 in culture supernatant, mean",[1]; Compound A 300 nM,37 pg/mL
same,CXCL13 in culture supernatant,[1]; Compound A 1000 nM,7 pg/ml and 3 pg/ml and 42 pg/ml (2×) and 84 pg/ml and 6 pg/ml
same,"CXCL13 in culture supernatant, mean",[1]; Compound A 1000 nM,31 pg/mL
same,CXCL13 in culture supernatant,[1]; Compound A 3000 nM,5 pg/mL and 3 pg/mL and 29 pg/mL and 86 pg/mL and 41 pg/mL and 4 pg/mL
same,"CXCL13 in culture supernatant, mean",[1]; Compound A 3000 nM,28 pg/mL
same,inhibition at 10 mg/kg,"[2]; 0 h, time 0 h (pre-dose), mean of four animals, read-out: % inhibition of pAkt in IgM+ B cells, Average",0%
same,inhibition at 10 mg/kg,"[2]; 1 h, time 1 h, individual rats 1-4, read-out: % inhibition of pAkt in IgM+ B cells",100%
same,inhibition at 10 mg/kg,"[2]; 1 h, time 1 h, mean of four animals, read-out: % inhibition of pAkt in IgM+ B cells, Average",98.2%
same,inhibition at 10 mg/kg,"[2]; 2 h, time 2 h, individual rats 1-4, read-out: % inhibition of pAkt in IgM+ B cells",101%
same,inhibition at 10 mg/kg,"[2]; 2 h, time 2 h, mean of four animals, read-out: % inhibition of pAkt in IgM+ B cells, Average",99.6%
same,inhibition at 10 mg/kg,"[2]; 4 h, time 4 h, mean of four animals, read-out: % inhibition of pAkt in IgM+ B cells, Average",95.1%
same,inhibition at 10 mg/kg,"[2]; 6 h, time 6 h, mean of four animals, read-out: % inhibition of pAkt in IgM+ B cells, Average",88.2%
same,inhibition at 10 mg/kg,"[2]; 8 h, time 8 h, mean of four animals, read-out: % inhibition of pAkt in IgM+ B cells, Average",79.4%
same,inhibition at 10 mg/kg,"[2]; 10 h, time 10 h, individual rats 1-4, read-out: % inhibition of pAkt in IgM+ B cells",69%
same,inhibition at 10 mg/kg,"[2]; 10 h, time 10 h, mean of four animals, read-out: % inhibition of pAkt in IgM+ B cells, Average",70.7%
same,inhibition at 10 mg/kg,"[2]; 12 h, time 12 h, individual rats 1-4, read-out: % inhibition of pAkt in IgM+ B cells",74.3%
same,inhibition at 10 mg/kg,"[2]; 12 h, time 12 h, mean of four animals, read-out: % inhibition of pAkt in IgM+ B cells, Average",72.1%
same,inhibition at 10 mg/kg,"[2]; 24 h, time 24 h, mean of four animals, read-out: % inhibition of pAkt in IgM+ B cells, Average",30.2%
same,% inhibition of pAkt in IgM+ B cells,[2]; time 0 h (pre-dose),−2.0% and 15.7% and 6.9% and −20.6%
same,% inhibition of pAkt in IgM+ B cells,[2]; time 1 h,95.6% and 99.1%
same,% inhibition of pAkt in IgM+ B cells,[2]; time 2 h,97.3% and 101.8%
same,% inhibition of pAkt in IgM+ B cells,[2]; time 4 h,93.8% and 105.3% and 81.4%
same,% inhibition of pAkt in IgM+ B cells,[2]; time 6 h,76.1% and 99.1% and 94.7% and 83.1%
same,% inhibition of pAkt in IgM+ B cells,[2]; time 8 h,83.1% (2×) and 85.8% and 65.4%
same,% inhibition of pAkt in IgM+ B cells,[2]; time 10 h,76.9% and 62.7%
same,% inhibition of pAkt in IgM+ B cells,[2]; time 12 h,71.6% and 73.4%
same,% inhibition of pAkt in IgM+ B cells,[2]; time 24 h,30.8% and 40.6% and 37.0% and 12.2%
